System: Streptavidin-R-phycoerythrin (SAPE)
Assay type: binding

Sequence: FTSSPSKHPQVEAGV [R441]
- SAPE binding median fluorescence vs unlabeled controls: comparable to the unlabeled controls
